Data published in PMC3589414, “Regulation of ASPP2 Interaction with p53 Core Domain by an Intramolecular Autoinhibitory Mechanism” (PLoS ONE, 2013).
Values joined by “and” are separate entries in the source; they are usually repeats but may differ in a detail not shown here. Identical values can stand only once. “Also recorded” adds a separate entry of the source. Where a SMILES comes first, the peptide text is derived from it. Where no end group is shown, it is not given here. The star is where a group is joined. 5FAM = O=C1OC2(c3ccc(O)cc3Oc3cc(O)ccc32)c2ccc(C(=O)*)cc21

Tests used:
[1] = target: T1, complex between ASPP2 Ank-SH3 and Fl-ASPP2 722–737 (Homo sapiens, UniProt Q13625); settings: previously shown; cited from earlier work
T1 construct: pRSET HLT ASPP2 893–1128 vector; HLT (vector-encoded tag); made in house
T1 sequence (Q13625 893-1128): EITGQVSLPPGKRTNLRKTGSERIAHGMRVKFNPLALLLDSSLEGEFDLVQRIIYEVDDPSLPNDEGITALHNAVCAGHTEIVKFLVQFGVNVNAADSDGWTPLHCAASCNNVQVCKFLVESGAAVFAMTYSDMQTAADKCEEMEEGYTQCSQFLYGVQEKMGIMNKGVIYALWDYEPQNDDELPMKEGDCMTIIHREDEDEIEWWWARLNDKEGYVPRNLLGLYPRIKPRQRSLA
From the text: Fl-NFκB 303–332 was previously shown to bind ASPP2 Ank-SH3 and compete with the Pro peptide ASPP2 722–737 [13]. We thus assumed that NFκB 303–332 also binds the SH3 domain of ASPP2, similar to p53CD and the ASPP2 Pro peptide. […] The Bcl-2 BH4 peptide (residues 7–24) binds the RT loop of ASPP2 in different residues than the p53 loop3 [14], [22]. […] However, p53CD displaced Fl-NFκB 303–332 from its complex with ASPP2 Ank-SH3. ...

[2] = target: Bcl-2 peptide 7-24 (Homo sapiens) (UniProt P10415); assay: fluorescence anisotropy; settings: cited from earlier work
[3] = target: T2, ASPP2 n-src peptide (residues 1089–1097) (Homo sapiens, UniProt Q13625); assay: Fluorescence anisotropy titration into Fl-ASPP2 n-src peptide; assay type: binding; settings: 20 mM Hepes pH 7.0, IS 50 mM, 5 mM βME, data not shown
T2 construct: fluorescein-labeled (Fl) ASPP2 n-src peptide (residues 1089–1097); made in house; host or cells: chemical peptide synthesis

[4] = system: complex between p53CD and Fl-ASPP2 1089–1097; assay: Fluorescence anisotropy competition: competitor added to complex of Fl-ASPP2 1089–1097 and p53CD; assay type: binding; settings: 200 µl of 130 µM competitor added to 87 nM Fl-ASPP2 1089–1097 and 6.5 µM p53CD, 50 mM Hepes pH 7.0, IS = 20 mM, 10 mM βME, 10°C
Procedure: (§1) In the competition experiments, the conditions were as follows: 100–200 µl of competitor peptide or protein were added to a 1200 µl mixture of 83 nM Fl-ASPP2 722–737 and 8.3 µM ASPP2 Ank-SH3 at 20 mM Hepes pH 7.0, IS = 50 mM, 5 mM βME; 200 µl of 130 µM of competitor peptide were added to a 1150-µl mixture of 87 nM Fl peptide ASPP2 1089–1097 and 6.5 µM p53CD at 50 mM Hepes pH 7.0, IS = 20 mM, 10 mM βME; 200 µl of 130 µM of Bcl-2 103–120 or Bcl-2 7–24 were added to a 1100 µl mixture of 87 nM Fl-NFκB 303–332 and 2.25 µM ASPP2 Ank-SH3 or to 1150 µl mixture of 87 nM Fl-ASPP2 722–737 and 4.5 µM ASPP2 Ank-SH3 at 20 mM Hepes pH 7.0, IS = 50 mM, 5 mM βME. The K d of the competitor was calculated as described.

[5] = system: R175H and R273H mutant p53; settings: cited from earlier work
From the text: (§2) It is possible that the peptide inhibits the intramolecular interaction in ASPP2 and thus activates the p53-ASPP2 interaction that ...

[6] = system: colorectal carcinoma HCT116 cells; settings: cited from earlier work
From the text: as §2

[7] = system: HCT116 p53−/− cells; settings: cited from earlier work
From the text: as §2

[8] = system: p53CD mutant I195T; settings: to levels similar to wild-type; cited from earlier work
From the text: (§3) The TP53 gene encoding p53 is frequently mutated in human cancers and most of these reported mutations are in the DNA-binding core domain of the protein (p53CD), [25]. Some of these mutations lower the thermodynamic stability of p53, resulting in its unfolding and inactivation.

[9] = system: p53CD; settings: 37°C, concentration-dependent; cited from earlier work
From the text: as §3

[10] = system: p53 R249S mutant; settings: back towards wild-type-like structure; cited from earlier work
From the text: as §3

[11] = target: T3, complex between ASPP2 Ank-SH3 and Fl-NFκB 303–332 (Homo sapiens, UniProt Q13625); assay: Fluorescence anisotropy competition: competitor added to complex of Fl-NFκB 303–332 and ASPP2 Ank-SH3; assay type: binding; settings: Bcl-2 peptides: 200 µl of 130 µM added to 87 nM Fl-NFκB 303–332 and 2.25 µM ASPP2 Ank-SH3, 20 mM Hepes pH 7.0, IS = 50 mM; p53CD: IS = 150 mM; 10°C
T3 construct: pRSET HLT ASPP2 893–1128 vector; HLT (vector-encoded tag); made in house
T3 sequence (Q13625 893-1128): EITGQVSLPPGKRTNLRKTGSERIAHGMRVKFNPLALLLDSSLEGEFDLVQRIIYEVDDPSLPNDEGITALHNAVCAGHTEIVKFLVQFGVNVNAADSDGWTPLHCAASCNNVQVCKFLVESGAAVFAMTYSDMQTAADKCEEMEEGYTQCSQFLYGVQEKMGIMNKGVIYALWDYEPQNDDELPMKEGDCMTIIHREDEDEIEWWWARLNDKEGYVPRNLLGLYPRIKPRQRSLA
Procedure: as §1

[12] = target: T1, complex between ASPP2 Ank-SH3 and Fl-ASPP2 722–737; assay: Fluorescence anisotropy competition: competitor added to complex of Fl-ASPP2 722–737 and ASPP2 Ank-SH3; assay type: binding; settings: 83–87 nM Fl-ASPP2 722–737, 8.3 µM (p53CD) or 4.5 µM (Bcl-2 peptides) ASPP2 Ank-SH3, 20 mM Hepes pH 7.0, IS = 50 mM, 5 mM βME, 10°C
Procedure: as §1

[13] = system: complex between Fl-ASPP2 1089–1097 and ASPP2 722–737; assay: Fluorescence anisotropy competition: p53CD added to complex of Fl-ASPP2 1089–1097 and ASPP2 722–737; assay type: binding; settings: Figure 2A
Procedure: A major p53-interacting site in ASPP2 SH3 is situated in the n-src loop between residues 1089–1097 [14], [27] (Figure 1A, B). […] The ASPP2 Pro peptide (residues 722–737) was titrated into the fluorescein-labeled (Fl) ASPP2 n-src peptide (residues 1089–1097). […] In the opposite experiment p53CD was added to a pre-formed complex between the ASPP2 Pro peptide and the Fl-ASPP2 n-src peptide (Figure 2A).

[14] = target: T4, Fl-ASPP2 1089–1097 (fluorescein-labelled ASPP2 n-src loop peptide); assay: fluorescence polarisation; fluorescence anisotropy; p53CD or ASPP2 722–737 titrated into 100 nM Fl-ASPP2 1089–1097 in the cuvette; 10°C; 50 mM Hepes pH 7.0, 10 mM NaCl, 10 mM βME; 1:1 binding model; settings: both partners purified
T4 construct: ASPP2 n-src loop of the SH3 domain, residues 1089-1097; also called Fl-ASPP2 n-src peptide; Fl-n-src peptide; source: synthetic peptide
T4 peptide: fluorescein-REDEDEIEW

[15] = target: T5, ASPP2 Ank-SH3 (ASPP2 893–1128) (UniProt Q13625 893-1128); assay: fluorescence polarisation; fluorescence anisotropy; ASPP2 Ank-SH3 titrated into 100 nM fluorescein-labelled peptide; 10°C; 20 mM Hepes pH 7.0, 5 mM βME; ionic strength 50 mM (told for the competitions done on these complexes); 1:1 binding model; settings: both partners purified
T5 construct: ASPP2, four ankyrin repeats and SH3 domain, residues 893-1128
T5 sequence (looked up): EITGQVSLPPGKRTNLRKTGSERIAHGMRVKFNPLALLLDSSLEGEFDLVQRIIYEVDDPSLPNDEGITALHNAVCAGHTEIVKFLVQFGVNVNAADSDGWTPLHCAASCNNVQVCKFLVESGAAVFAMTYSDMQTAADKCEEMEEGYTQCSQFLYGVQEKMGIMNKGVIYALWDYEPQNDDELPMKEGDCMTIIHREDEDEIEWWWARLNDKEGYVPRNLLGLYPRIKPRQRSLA

[16] = target: T5, ASPP2 Ank-SH3 (ASPP2 893–1128); assay: fluorescence polarisation; fluorescence anisotropy; ASPP2 Ank-SH3 titrated into Fl-NFκB 303–332; 10°C; 20 mM Hepes pH 7.0, 5 mM βME; ionic strength 150 mM (told for the competition done on this complex); settings: both partners purified

CC[C@H](C)[C@H](NC(=O)[C@H](CCCNC(=N)N)NC(=O)[C@H](CCCNC(=N)N)NC(=O)[C@@H]1CCCN1C(=O)[C@@H]1CCCN1C(=O)[C@@H]1CCCN1C(=O)[C@H](CCCNC(=N)N)NC(=O)[C@@H]1CCCN1C(=O)[C@H](CC(=O)O)NC(=O)[C@@H](NC(=O)[C@@H]1CCCN1C(=O)CNC(=O)[C@H](CO)NC(=O)[C@H](Cc1ccccc1)NC(=O)[C@@H]1CCCN1C(=O)[C@H](CO)NC(=O)[C@H](CCCCN)NC(=O)[C@H](CCCCN)NC(=O)[C@H](CCSC)NC(=O)[C@@H](NC(=O)[C@H](CO)NC(=O)[C@H](CCCCN)NC(=O)[C@H](Cc1ccccc1)NC(=O)[C@@H](NC(=O)[C@H](CCC(=O)O)NC(=O)[C@H](Cc1ccc(O)cc1)NC(=O)[C@@H](NC(=O)[C@H](CCCNC(=N)N)NC(=O)[C@H](CCCCN)NC(=O)c1ccc2c(c1)C(=O)OC21c2ccc(O)cc2Oc2cc(O)ccc21)[C@@H](C)O)[C@@H](C)O)[C@@H](C)CC)[C@@H](C)O)C(=O)N[C@@H](C)C(N)=O [Fl-NFκB 303–332] (5FAM-KRTYETFKSIMKKSPFSGPTDPRPPPRRIA-NH2)
Competition of NFκB 303–332 with Pro peptide ASPP2 722–737 for ASPP2 Ank-SH3 [1]: compete

ASPP2 Ank-SH3 Ank-SH3 (from UniProt Q13625)
Kd [2]: 4700 nM

KRTYETFKSIMKKSPFSGPTDPRPPPRRIA [NFκB 303–332]
Competition of NFκB 303–332 with Pro peptide ASPP2 722–737 for ASPP2 Ank-SH3 [1]: competed
Binding of NFκB 303–332 to the n-src loop peptide [3]: did not bind
Displacement of p53CD from its complex with Fl-ASPP2 n-src peptide 1089–1097 by non-labeled peptide [4]: did not compete

NFκB 21–50: unlabeled peptide derived from the ASPP2-binding sites in NFκB (VEIIEQPKQRGMRFRYKCEGRSAGSIPGER)
Displacement of p53CD from its complex with Fl-ASPP2 n-src peptide 1089–1097 by non-labeled peptide [4]: did not compete

REDEDEIEW [ASPP2 1089–1097, nine-residue peptide derived from ASPP2 n-src loop (residues 1089–1097), also termed CDB3]
Conformation of R175H and R273H mutant p53 in cells [5]: restored the wild-type conformation
Sensitization to apoptosis induced by γ-irradiation [6]: sensitize
Sensitization to apoptosis induced by γ-irradiation [7]: not
Specific DNA binding activity of p53CD mutant I195T [8]: restored the specific DNA binding activity
Unfolding of p53CD [9]: slowed down the unfolding
Structural effects of mutation in p53 R249S [10]: rescued the structural effects of mutation

RRYRRDFAEMSSQLHLTP [Bcl-2 103–120]
Displacement of Fl-NFκB 303–332 from its complex with ASPP2 Ank-SH3 [11]: did not displace; also recorded: did not compete
Displacement of p53CD from its complex with Fl-ASPP2 n-src peptide 1089–1097 by non-labeled peptide [4]: did not compete
Displacement of Fl-ASPP2 722–737 from its complex with ASPP2 Ank-SH3 [12]: did not displace; also recorded: did not compete

YDNREIVMKYIHYKLSQR [Bcl-2 7–24, Bcl2 BH4 derived peptide, residues 7–24]
Displacement of Fl-NFκB 303–332 from its complex with ASPP2 Ank-SH3 [11]: did not displace; also recorded: did not compete
Displacement of p53CD from its complex with Fl-ASPP2 n-src peptide 1089–1097 by non-labeled peptide [4]: did not compete
Displacement of Fl-ASPP2 722–737 from its complex with ASPP2 Ank-SH3 [12]: did not displace; also recorded: did not compete

p53CD: recombinant p53 DNA-binding core domain, residues 94–312, expressed in E. coli
Displacement of Fl-NFκB 303–332 from its complex with ASPP2 Ank-SH3 [11]: displaced
Anisotropy change on adding p53CD to pre-formed complex of ASPP2 Pro peptide and Fl-ASPP2 n-src peptide [13]: the final anisotropy level increased
Displacement of Fl-ASPP2 722–737 from its complex with ASPP2 Ank-SH3 [12]: displaced

B1: ASPP2 722–737 (ASPP2 Pro peptide, non-labelled) (peptide)
peptide: WRKKLSNAPRPLKKRSS
notes: Trp added at the N terminus of the peptide for UV spectroscopy; A natural stretch with one added N-terminal Trp; source: synthetic peptide
Kd [14]: 500 ± 30 nM

B2: Fl-NFκB 303–332 (fluorescein-labelled NFκB p65 peptide) (peptide)
peptide: fluorescein-KRTYETFKSIMKKSPFSGPTDPRPPPRRIA
notes: also called NFκB peptide; source: synthetic peptide
Kd [15]: 130 ± 10 nM
Kd [16]: 470 ± 20 nM

B3: Fl-ASPP2 722–737 (fluorescein-labelled ASPP2 Pro peptide) (peptide)
peptide: fluorescein-WRKKLSNAPRPLKKRSS
notes: Trp added at the N terminus of the peptide for UV spectroscopy; also called Fl-ASPP2 Pro peptide; source: synthetic peptide
Kd [15]: 680 nM and 820 nM
